According to ChEMBL document CHEMBL6153024, “A novel life for antitumor combretastatins: Recent developments of hybrids, prodrugs, combination therapies, and antibody-drug conjugates” (Eur J Med Chem, 2025):

System: HT-29
Assay: Anticancer activity against human HT-29 cells
Assay type: functional, cell-based
Conditions: pooled result: one value given for 4 cell lines, strains, targets or settings

IC50: 258 nM
Structure (SMILES): COc1ccc(C2=C(c3cc(I)c(OC)c(I)c3)C(=O)OC2)cc1
